According to the supplement of paper PMC10307832:

Legend:
Test in all cases: relative viability (nuclei count vs DMSO), 5 days (fraction); higher = more cells survive
[1] = compound: CC(C)=CC[C@@H](O)C1=CC(=O)c2c(O)ccc(O)c2C1=O [Shikonin] + Nc1nc2[nH]cc(CCc3ccc(C(=O)N[C@@H](CCC(=O)O)C(=O)O)cc3)c2c(=O)[nH]1 [Pemetrexed] (partner 0.2 µM)
How it was run: (§1)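 Lung cancer cell lines in 1536-well plates got either a single drug or a fixed anchor-drug dose together with five library-drug doses (not always all listed) in √10 steps, by pin tool, on the day after seeding. Nuclei were counted after 5 days, and relative viability is the treated-to-vehicle ratio of nuclei counts. Values are medians of duplicate plates.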

[2] = compound: CC(C)N(CCCNC(=O)Nc1ccc(C(C)(C)C)cc1)C[C@H]1O[C@@H](n2ccc3c(N)ncnc32)[C@H](O)[C@@H]1O + COc1cccc2cc(-c3nc([C@H]4CC[C@H](C(=O)O)CC4)n4ncnc(N)c34)[nH]c12 [OSI-027] (partner 0.5 µM)
How it was run: as §1

[3] = compound: CC(C)N(CCCNC(=O)Nc1ccc(C(C)(C)C)cc1)C[C@H]1O[C@@H](n2ccc3c(N)ncnc32)[C@H](O)[C@@H]1O + Nc1ncn([C@H]2C[C@H](O)[C@@H](CO)O2)c(=O)n1 [Decitabine] (partner 2 µM)
How it was run: as §1

[4] = compound: CC(C)N(CCCNC(=O)Nc1ccc(C(C)(C)C)cc1)C[C@H]1O[C@@H](n2ccc3c(N)ncnc32)[C@H](O)[C@@H]1O + O=C(c1cc(Cc2n[nH]c(=O)c3ccccc23)ccc1F)N1CCN(C(=O)C2CC2)CC1 [Olaparib] (partner 8 µM)
How it was run: as §1

Cell Line: 201T
- relative viability ([1]; first compound 0.01 µM): 0.346
- relative viability ([1]; first compound 0.1 µM): 0.382
- relative viability ([1]; first compound 0.3162 µM): 0.368
- relative viability ([1]; first compound 1 µM): 0.307
- relative viability ([2]; first compound 0.08 µM): 0.417
- relative viability ([2]; first compound 0.253 µM): 0.864
- relative viability ([2]; first compound 0.8 µM): 0.624
- relative viability ([2]; first compound 2.53 µM): 0.77
- relative viability ([2]; first compound 8 µM): 0.903
- relative viability ([3]; first compound 0.08 µM): 0.841
- relative viability ([3]; first compound 0.253 µM): 0.889
- relative viability ([3]; first compound 2.53 µM): 0.876
- relative viability ([3]; first compound 8 µM): 0.844
- relative viability ([4]; first compound 0.08 µM): 0.83
- relative viability ([4]; first compound 0.253 µM): 0.891
- relative viability ([4]; first compound 2.53 µM): 0.809
- relative viability ([4]; first compound 8 µM): 0.797

Cell Line: HOP-62
- relative viability ([1]; first compound 0.01 µM): 0.432
- relative viability ([1]; first compound 0.1 µM): 0.353
- relative viability ([1]; first compound 0.3162 µM): 0.349
- relative viability ([1]; first compound 1 µM): 0.278
- relative viability ([2]; first compound 0.08 µM): 0.864
- relative viability ([2]; first compound 0.253 µM): 0.89
- relative viability ([2]; first compound 0.8 µM): 0.767
- relative viability ([2]; first compound 2.53 µM): 0.751
- relative viability ([2]; first compound 8 µM): 0.681
- relative viability ([3]; first compound 0.08 µM): 0.225
- relative viability ([3]; first compound 0.253 µM): 0.207
- relative viability ([3]; first compound 0.8 µM): 0.21
- relative viability ([3]; first compound 2.53 µM): 0.195
- relative viability ([3]; first compound 8 µM): 0.198
- relative viability ([4]; first compound 0.08 µM): 0.242
- relative viability ([4]; first compound 0.253 µM): 0.642
- relative viability ([4]; first compound 0.8 µM): 0.261
- relative viability ([4]; first compound 2.53 µM): 0.347
- relative viability ([4]; first compound 8 µM): 0.314

Cell Line: NCI-H647
- relative viability ([1]; first compound 0.01 µM): 0.194
- relative viability ([1]; first compound 0.1 µM): 0.174
- relative viability ([1]; first compound 0.3162 µM): 0.183
- relative viability ([1]; first compound 1 µM): 0.156
- relative viability ([2]; first compound 0.08 µM): 0.511
- relative viability ([2]; first compound 0.253 µM): 0.579
- relative viability ([2]; first compound 2.53 µM): 0.742
- relative viability ([2]; first compound 8 µM): 0.586
- relative viability ([3]; first compound 0.08 µM): 0.419
- relative viability ([3]; first compound 0.253 µM): 0.374
- relative viability ([3]; first compound 0.8 µM): 0.363
- relative viability ([3]; first compound 2.53 µM): 0.336
- relative viability ([3]; first compound 8 µM): 0.392
- relative viability ([4]; first compound 0.08 µM): 0.439
- relative viability ([4]; first compound 0.253 µM): 0.507
- relative viability ([4]; first compound 0.8 µM): 0.508
- relative viability ([4]; first compound 2.53 µM): 0.587
- relative viability ([4]; first compound 8 µM): 0.543

Cell Line: NCI-H1755
- relative viability ([1]; first compound 0.01 µM): 0.453
- relative viability ([1]; first compound 0.1 µM): 0.409
- relative viability ([1]; first compound 0.3162 µM): 0.477
- relative viability ([1]; first compound 1 µM): 0.417
- relative viability ([2]; first compound 0.08 µM): 0.801
- relative viability ([2]; first compound 0.253 µM): 0.753
- relative viability ([2]; first compound 0.8 µM): 0.672
- relative viability ([2]; first compound 2.53 µM): 0.717
- relative viability ([2]; first compound 8 µM): 0.667
- relative viability ([3]; first compound 0.08 µM): 0.787
- relative viability ([3]; first compound 0.253 µM): 0.701
- relative viability ([3]; first compound 0.8 µM): 0.666
- relative viability ([3]; first compound 2.53 µM): 0.668
- relative viability ([3]; first compound 8 µM): 0.714
- relative viability ([4]; first compound 0.08 µM): 0.892
- relative viability ([4]; first compound 0.253 µM): 0.902
- relative viability ([4]; first compound 0.8 µM): 0.861
- relative viability ([4]; first compound 2.53 µM): 0.828
- relative viability ([4]; first compound 8 µM): 0.793

Cell Line: NCI-H2085
- relative viability ([1]; first compound 0.01 µM): 0.88
- relative viability ([1]; first compound 0.1 µM): 0.93
- relative viability ([1]; first compound 0.3162 µM): 0.868
- relative viability ([1]; first compound 1 µM): 0.872
- relative viability ([2]; first compound 0.08 µM): 0.847
- relative viability ([2]; first compound 0.253 µM): 0.621
- relative viability ([2]; first compound 0.8 µM): 0.705
- relative viability ([2]; first compound 2.53 µM): 0.757
- relative viability ([2]; first compound 8 µM): 1
- relative viability ([3]; first compound 0.08 µM): 0.55
- relative viability ([3]; first compound 0.253 µM): 0.486
- relative viability ([3]; first compound 0.8 µM): 0.561
- relative viability ([3]; first compound 2.53 µM): 0.542
- relative viability ([3]; first compound 8 µM): 0.546
- relative viability ([4]; first compound 0.08 µM): 0.749
- relative viability ([4]; first compound 0.253 µM): 0.834
- relative viability ([4]; first compound 0.8 µM): 0.873
- relative viability ([4]; first compound 2.53 µM): 0.867
- relative viability ([4]; first compound 8 µM): 0.763

Cell Line: NCI-H2023
- relative viability ([1]; first compound 0.01 µM): 0.239
- relative viability ([1]; first compound 0.1 µM): 0.235
- relative viability ([1]; first compound 0.3162 µM): 0.221
- relative viability ([1]; first compound 1 µM): 0.262
- relative viability ([2]; first compound 0.08 µM): 0.375
- relative viability ([2]; first compound 0.253 µM): 0.501
- relative viability ([2]; first compound 0.8 µM): 0.414
- relative viability ([2]; first compound 2.53 µM): 0.392
- relative viability ([2]; first compound 8 µM): 0.353
- relative viability ([3]; first compound 0.08 µM): 0.256
- relative viability ([3]; first compound 0.253 µM): 0.25
- relative viability ([3]; first compound 0.8 µM): 0.242
- relative viability ([3]; first compound 2.53 µM): 0.205
- relative viability ([3]; first compound 8 µM): 0.191
- relative viability ([4]; first compound 0.08 µM): 0.491
- relative viability ([4]; first compound 0.253 µM): 0.458
- relative viability ([4]; first compound 0.8 µM): 0.458
- relative viability ([4]; first compound 2.53 µM): 0.446
- relative viability ([4]; first compound 8 µM): 0.43
